Broadly, the IC50 is the concentration needed to halve the response being measured. Read a high IC50 as weaker potency in that assay. Usually inhibition in vivo stands for the drop in the measured response relative to a control, in per cent. High values mean a strong effect, low ones a weak effect. By inhibition is commonly meant the relative decrease from the control value, in per cent. High values mean a response far below the control, low ones a response near the control. As a reminder, the ED50 is the dose that gives a 50% effect, or the effect in half of the subjects. The low end stands for greater potency, the high end for weaker potency.

Here are results for 18 molecules from ChEMBL document CHEMBL1130658 (Bioorg Med Chem Lett, 1998).

Data set [1] addresses MAP kinase p38 (Homo sapiens, UniProt O15264+Q15759+Q16539+P53778). The data set can be described thus: Compound was tested for inhibition of p38 MAP kinase. The data set is classed as protein assay.
The subject of data set [2] is Mus musculus. The data set can be described thus: Effective dose required to determine the oral activity in the mouse LPS-induced TNF alpha assay at a dose of 50 mg/kg. The data set is classed as functional.
The subject of data set [3] is Mus musculus. The data set can be described thus: Effective dose required to determine the oral activity in the mouse LPS-induced TNF alpha assay at a dose of 50 mg/Kg. It counts as functional.
In data set [4] the target is CYP2D6 (Homo sapiens, UniProt P10635). In words: Percent inhibition of human hepatic cytochrome P450 2D6 at 10 uM. It counts as ADME.
CYP2D6, sequence (P10635 whole entry): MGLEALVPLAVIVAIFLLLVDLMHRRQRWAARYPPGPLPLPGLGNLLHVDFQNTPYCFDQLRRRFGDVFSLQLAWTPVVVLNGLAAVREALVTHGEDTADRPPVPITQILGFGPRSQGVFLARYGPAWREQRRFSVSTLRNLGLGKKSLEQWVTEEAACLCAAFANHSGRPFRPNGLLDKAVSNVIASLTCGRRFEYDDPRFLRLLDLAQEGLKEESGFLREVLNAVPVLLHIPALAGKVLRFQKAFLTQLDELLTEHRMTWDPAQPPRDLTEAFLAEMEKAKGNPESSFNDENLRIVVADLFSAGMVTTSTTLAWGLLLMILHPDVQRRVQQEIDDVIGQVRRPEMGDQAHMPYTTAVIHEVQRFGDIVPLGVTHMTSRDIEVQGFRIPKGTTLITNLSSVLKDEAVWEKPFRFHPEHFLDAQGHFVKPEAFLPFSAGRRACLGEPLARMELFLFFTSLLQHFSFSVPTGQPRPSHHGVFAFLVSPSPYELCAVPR
Data set [5] is filed under the species Mus musculus. In words: Effective dose required to determine the oral activity in the mouse LPS-induced TNF alpha assay. It counts as functional.

The structures appear in SMILES notation.

For `COc1cc(-c2c(-c3ccc(F)cc3)ncn2CCCN2CCOCC2)ncn1`, the IC50 in data set [1] is over 17 µM.

Molecule `CC(=O)Nc1cc(-c2c(-c3ccc(F)cc3)ncn2CCCN2CCOCC2)ncn1` returned an inhibition in vivo at 50 mg/kg in data set [2] of 21%. The molecule further showed a concentration for half-maximal inhibition (IC50) in data set [1] of 3.5 µM. Take `Cc1nccc(-c2c(-c3ccc(F)cc3)ncn2CCCN2CCOCC2)n1`: the inhibition in vivo at 50 mg/kg in data set [3] is 65%. This molecule showed an inhibition at 10 µM in data set [4] of 19%. In data set [1], this molecule returned an IC50 of 1.3 µM. In the case of `COc1nccc(-c2c(-c3ccc(F)cc3)ncn2CCCN2CCOCC2)n1`, the ED50 in data set [5] was determined as 14 mg/kg. In addition, the inhibition at 10 µM in data set [4] turned out to be 7%. Consider `CSc1nccc(-c2c(-c3ccc(F)cc3)ncn2CCCN2CCOCC2)n1`, for which it took a dose of 43 mg/kg to reach the 50% effect level in data set [5] (ED50). This molecule also registered an inhibition at 10 µM in data set [4] of 47%. In addition, in data set [1], the IC50 turned out to be 2 µM. For `Fc1ccc(-c2ncn(CCCN3CCOCC3)c2-c2ccncn2)cc1`, the ED50 in data set [5] was found to be 12 mg/kg. Moreover, testing at 10 µM in data set [4] gave an inhibition of 34%. As to `Nc1nccc(-c2c(-c3ccc(F)cc3)ncn2CCCN2CCOCC2)n1`, the inhibition at 10 µM in data set [4] amounted to 47%. In data set [2], `C[S+]([O-])c1nccc(-c2c(-c3ccc(F)cc3)ncn2CCCN2CCOCC2)n1` (stereo not drawn) yielded an inhibition in vivo at 50 mg/kg of 37%. In data set [1], the IC50 stood at 2.2 µM. In the case of `Cc1cc(-c2c(-c3ccc(F)cc3)ncn2CCCN2CCOCC2)cc(C)n1`, in data set [1], the IC50 is over 17 µM. Still for that read-out and setting: then `CSc1nc(N)cc(-c2c(-c3ccc(F)cc3)ncn2CCCN2CCOCC2)n1`, with over 17 µM; and `Nc1cc(-c2c(-c3ccc(F)cc3)ncn2CCCN2CCOCC2)ncn1`, with over 17 µM.

`Cc1cc(-c2c(-c3ccc(F)cc3)ncn2CCCN2CCOCC2)nc(N)n1` gave an IC50 in data set [1] of over 17 µM.

`Cc1cc(-c2c(-c3ccc(F)cc3)ncn2CCCN2CCOCC2)ccn1`: in data set [2], the inhibition in vivo at 50 mg/kg was determined as 37%. This molecule gave an inhibition at 10 µM in data set [4] of 51%. Moreover, the IC50 in data set [1] was found to be 2.1 µM. In turn, `Fc1ccc(-c2ncn(CCCN3CCOCC3)c2-c2ccncc2)cc1` [SB-210313] registered an ED50 in data set [5] of 42 mg/kg. The same molecule had an inhibition at 10 µM in data set [4] of 86%. `CN(C)c1nccc(-c2c(-c3ccc(F)cc3)ncn2CCCN2CCOCC2)n1`: in data set [1], the IC50 was found to be 3.6 µM. This counts as single-digit micromolar.

Take `CC(=O)Nc1nccc(-c2c(-c3ccc(F)cc3)ncn2CCCN2CCOCC2)n1`: the inhibition in vivo at 50 mg/kg in data set [2] was found to be 12%. Further, in data set [1], the IC50 was 0.46 µM. In turn, `CNc1nccc(-c2c(-c3ccc(F)cc3)ncn2CCCN2CCOCC2)n1` displayed an ED50 in data set [5] of 19 mg/kg. In data set [4], this molecule gave an inhibition at 10 µM of 11%. For the same molecule, in data set [1], the IC50 came to 1.9 µM. In turn, `Oc1nccc(-c2c(-c3ccc(F)cc3)ncn2CCCN2CCOCC2)n1` yielded an inhibition in vivo at 50 mg/kg in data set [2] of 33%. Besides, the IC50 in data set [1] was determined as 5.5 µM.
